Paper PMC8954523 (Pharmaceutics, 2022)
Values after ≈ are worked out from the molar mass of the structure shown. Like-named read-outs stand apart in the source and are kept apart here.

Columns and labels:
[1] = Equilibrium solubility, shake-flask method; type: physicochemical; settings: for solubility at 24 h: thermodynamic from solid, read-out: Solubility S2 × 10^6
Protocol: The standard shake-flask method was applied to determine solubility. The saturated solutions of the studied compound were obtained in glass screw-capped vials with the respective solvent, which were vigorously stirred in an air thermostat. The volumes of water, 1-octanol, n-hexane, and ethanol equaled 7, 2, 7, and 2 mL, respectively. […] After this time period, the saturated solutions stayed in the thermostat during the night, and then the non-dissolved substance was separated from the solution via centrifugation (Biofuge pico, Thermo Electron LED GmbH, Langenselbold, Germany) at the respective temperature for 20 min at 10,000 rpm. […] The experimental results were reported as an average of at least three replicated experiments with an accuracy of 2–4%.
The dissolution thermodynamic parameters on the standard state were determined using mole fraction unitary units. Recalculation of the molar solubility to the mole fraction was made as follows:(1) X2=M1S2/S2(M1−M2)+1000ρ, where S2 is the molar solubility of solute (M), M1 and M2 are the molar masses of solvent and solute, respectively, and ρ (g∙cm^−3) is the density of pure solvents. […] The density values of the pure solvents were used in calculations (Table S1).

[2] = Apparent distribution coefficient, n-hexane/water, isothermal shake-flask; type: physicochemical; settings: 298.15 K
Protocol: (§1) The well-known isothermal shake-flask method was applied for the determination of the apparent distribution coefficients in the 1-octanol/water ( Dappoct/w ) and n-hexane/water ( Dapphex/w ) systems. The mutually saturated solvents were prepared by mixing water and organic phases for 24 h and settling and separating from each other. The stock solutions of the drug were made from 1-octanol saturated with water for the 1-octanol/water distribution, and n-hexane saturated with water for the n-hexane/water system. An aliquot of the stock solution was placed in a glass vial together with an aliquot of the respective phase and mixed for 24 h at five temperatures, from 293.15 to 313.15 K (±0.1 K). The concentrations of the compounds were determined spectrophotometrically (Shimadzu 1800, Kyoto, Japan) in a UV region, with an accuracy of 2–4%. The reported experimental values represent the average of at least four replicate experiments.
(§2) The apparent distribution coefficients were calculated from the molar concentrations of the substance in the phases using the following equation:(10) DCorg/w=C2org/w/C2w/org where DCorg/w is the apparent distribution coefficient, C2org/w and C2w/org are the concentrations (M) of the compound after the distribution in the 1-octanol or n-hexane and water phases, respectively. The apparent distribution coefficients in the mole fraction scale ( DXorg/w ) were calculated by the equation:(11) DXorg/w=X2org/w/X2w/org where X2org/w and X2w/org are the concentrations (mole fract.) of the compound after distribution. The standard Gibbs energy of the transfer ( ΔGtr0) from water to the organic phase was calculated as follows:(12) ΔGtr0=−RT(lnDXorg/w)

[3] = Hypothetical transfer thermodynamic functions from solvation functions; type: physicochemical; settings: 298.15 K; for TΔStr / ΔGtr / ΔHtr / ΔStr / ζHtr / ζTStr: hypothetical
Protocol: The impact of the specific interactions on the solvation process was estimated by analyzing the thermodynamic functions of the hypothetical transfer from n-hexane—an inert solvent interacting with the drugs only non-specifically—to water, 1-octanol, and ethanol. Besides this, the hypothetic transfer from water to 1-octanol is significant as a model of the drug penetrating through the lipophilic biological membranes. The transferring thermodynamic parameters listed in Table 4 were calculated as a difference (taking into account the sign of the thermodynamic function) between the respective functions in a solvent (1-octanol/water/ethanol) and in n-hexane and between 1-octanol and water.
The relationship between the specific and non-specific solvation thermodynamic contributions was disclosed using the εH and εS parameters calculated as follows:(20) εH=(ΔHspec/ΔHnon−spec)⋅100%where ΔHspec=ΔHtr(n−hexane→solvent)and ΔHnon−spec=ΔHsolv(n−hexane) (21) εS=(ΔSspec/ΔSnon−spec)⋅100%where ΔSspec=ΔStr(n−hexane→solvent)and ΔSnon−spec=ΔSsolv(n−hexane)

[4] = cited from earlier work
[5] = Apparent distribution coefficient, 1-octanol/water, isothermal shake-flask; type: physicochemical; settings: 298.15 K
Protocol: as §1, §2

CC(O)(CS(=O)(=O)c1ccc(F)cc1)C(=O)Nc1ccc(C#N)c(C(F)(F)F)c1 (stereo not drawn) [BCL, bicalutamide]
Solubility X2 × 10^4 ([1]; 1-octanol, 293.15 K): 2.23 mole fract.
Solubility X2 ([1]; 1-octanol, 298.15 K): 2.57 × 10^−4 mole fract.
Solubility X2 × 10^4 ([1]; 1-octanol, 298.15 K): 2.57 mole fract.
Solubility X2 × 10^4 ([1]; 1-octanol, 303.15 K): 3.00 mole fract.
Solubility X2 × 10^4 ([1]; 1-octanol, 308.15 K): 3.40 mole fract.
Solubility X2 × 10^4 ([1]; 1-octanol, 313.15 K): 3.95 mole fract.
Solubility X2 × 10^3 ([1]; ethanol, 293.15 K): 1.15 mole fract.
Solubility X2 ([1]; ethanol, 298.15 K): 1.42 × 10^−3 mole fract.
Solubility X2 × 10^3 ([1]; ethanol, 298.15 K): 1.42 mole fract.
X2 298.15 ([1]; ethanol, 298.15 K): 1.42 × 10^−3
Solubility X2 × 10^3 ([1]; ethanol, 303.15 K): 1.74 mole fract.
Solubility X2 × 10^3 ([1]; ethanol, 308.15 K): 2.11 mole fract.
Solubility X2 × 10^3 ([1]; ethanol, 313.15 K): 2.43 mole fract.
solubility in ethanol as compared to 1-octanol ([1]; mole fraction, 298.15 K): 5.5 fold
Solubility X2 × 10^6 ([1]; n-hexane, 293.15 K): 0.74 mole fract.
Solubility X2 ([1]; n-hexane, 298.15 K): 1.07 × 10^−6 mole fract.
Solubility X2 × 10^6 ([1]; n-hexane, 298.15 K): 1.07 mole fract.
X2 298.15 ([1]; n-hexane, 298.15 K): 1.07 × 10^−6
Solubility X2 × 10^6 ([1]; n-hexane, 303.15 K): 1.50 mole fract.
Solubility X2 × 10^6 ([1]; n-hexane, 308.15 K): 2.04 mole fract.
Solubility X2 × 10^6 ([1]; n-hexane, 313.15 K): 2.76 mole fract.
Solubility X2 × 10^6 ([1]; n-hexane, 318.15 K): 3.63 mole fract.
solubility at 24 h ([1]; n-hexane, organic solvent or mixture, n-hexane, 293.15 K): 5.67 µM (≈ 2.44 µg/mL)
solubility at 24 h ([1]; n-hexane, organic solvent or mixture, n-hexane, 298.15 K): 8.12 µM (≈ 3.49 µg/mL)
solubility at 24 h ([1]; n-hexane, organic solvent or mixture, n-hexane, 303.15 K): 11.3 µM (≈ 4.88 µg/mL)
solubility at 24 h ([1]; n-hexane, organic solvent or mixture, n-hexane, 308.15 K): 15.3 µM (≈ 6.59 µg/mL)
solubility at 24 h ([1]; n-hexane, organic solvent or mixture, n-hexane, 313.15 K): 20.5 µM (≈ 8.83 µg/mL)
solubility at 24 h ([1]; n-hexane, organic solvent or mixture, n-hexane, 318.15 K): 26.8 µM (≈ 11.5 µg/mL)
Solubility X2 × 10^7 ([1]; water, 293.15 K): 1.12 mole fract.
Solubility X2 ([1]; water, 298.15 K): 1.47 × 10^−7 mole fract.
Solubility X2 × 10^7 ([1]; water, 298.15 K): 1.47 mole fract.
X2 298.15 ([1]; water, 298.15 K): 1.47 × 10^−7
Solubility X2 × 10^7 ([1]; water, 303.15 K): 1.90 mole fract.
Solubility X2 × 10^7 ([1]; water, 308.15 K): 2.35 mole fract.
Solubility X2 × 10^7 ([1]; water, 313.15 K): 2.97 mole fract.
solubility at 24 h ([1]; water, water, 293.15 K): 6.24 µM (≈ 2.69 µg/mL)
solubility at 24 h ([1]; water, water, 298.15 K): 8.14 µM (≈ 3.5 µg/mL)
solubility at 24 h ([1]; water, water, 303.15 K): 10.5 µM (≈ 4.53 µg/mL)
solubility at 24 h ([1]; water, water, 308.15 K): 12.9 µM (≈ 5.57 µg/mL)
solubility at 24 h ([1]; water, water, 313.15 K): 16.4 µM (≈ 7.05 µg/mL)
experimental over calculated distribution coefficient ([2]; n-hexane/water): 1.9 fold
DChex/w, experimental apparent distribution coefficient ([2]; n-hexane/water, molarity scale): 1.88 ± 0.04
DC/calchex/w, calculated distribution coefficient ([2]; ratio of molar solubilities in n-hexane and water): 1.00
εH ([3]; n-hexane → 1-octanol): 36.6%
εS ([3]; n-hexane → 1-octanol): 30.2%
TΔStr ([3]; n-hexane → 1-octanol): −13.9 kJ⋅mol^−1
ΔGtr ([3]; n-hexane → 1-octanol): −13.7 kJ⋅mol^−1
ΔHtr ([3]; n-hexane → 1-octanol): −27.6 kJ⋅mol^−1
ΔStr ([3]; n-hexane → 1-octanol): −46.6 J⋅mol^−1⋅K^−1
ζHtr ([3]; n-hexane → 1-octanol): 66.5%
ζTStr ([3]; n-hexane → 1-octanol): 33.5%
εS ([3]; n-hexane → ethanol): 5.0%
TΔStr ([3]; n-hexane → ethanol): −2.3 kJ⋅mol^−1
ΔGtr ([3]; n-hexane → ethanol): −18 kJ⋅mol^−1
ΔHtr ([3]; n-hexane → ethanol): −20.3 kJ⋅mol^−1
ΔStr ([3]; n-hexane → ethanol): −7.7 J⋅mol^−1⋅K^−1
ζHtr ([3]; n-hexane → ethanol): 89.8%
ζTStr ([3]; n-hexane → ethanol): 10.2%
εH ([3]; n-hexane → water): 16.4%
εS ([3]; n-hexane → water): 37.4%
TΔStr ([3]; n-hexane → water): −17.2 kJ⋅mol^−1
ΔGtr ([3]; n-hexane → water): 4.8 kJ⋅mol^−1
ΔHtr ([3]; n-hexane → water): −12.4 kJ⋅mol^−1
ΔStr ([3]; n-hexane → water): −57.7 J⋅mol^−1⋅K^−1
ζHtr ([3]; n-hexane → water): 41.9%
ζTStr ([3]; n-hexane → water): 58.1%
TΔStr ([3]; water → 1-octanol): 3.3 kJ⋅mol^−1
ΔGtr ([3]; water → 1-octanol): −18.5 kJ⋅mol^−1
ΔHtr ([3]; water → 1-octanol): −15.2 kJ⋅mol^−1
ΔStr ([3]; water → 1-octanol): 11.1 J⋅mol^−1⋅K^−1
ζHtr ([3]; water → 1-octanol): 82.2%
ζTStr ([3]; water → 1-octanol): 17.8%
solubility ([4]; aqueous): less than 5 mg∙L^−1
aqueous solubility ([4]; ref 10): approximately 3.7 μg·mL^−1
aqueous solubility ([4]; ref 11): 8.85 µg/mL (≈ 20.6 µM)
experimental over calculated distribution coefficient ([5]; 1-octanol/water): 3.3 fold
logP at 24 h ([5]; 1-octanol/water, read-out: logDCoct/w, experimental): 2.82 ± 0.09
DCoct/w, experimental apparent distribution coefficient ([5]; 1-octanol/water, molarity scale): 662.29 ± 20.22
∆logDcalc ([5]; from calculated distribution coefficients): 2.30
∆logD ([5]; logDCoct/w − logDChex/w, experimental): 2.55
DC/calcoct/w, calculated distribution coefficient ([5]; ratio of molar solubilities in 1-octanol and water): 199.02 ± 12.00
